Measured values published in article PMC10257182, “Discovery of senolytics using machine learning” (Nature Communications, 2023).
“And” between values parts separate entries of the source, which are not always exact repeats. Equal values may be shown once. Where a name gives a salt, the structure may show the parent alone. Read-outs that look alike come from different tables or passages of the source.

What was measured:
Format in all cases: cell-based, human
[1] = system: NOXA mRNA in senescent IMR90 ER:RAS cells; assay: NOXA mRNA expression by RT-qPCR, OIS; conditions: for NOXA mRNA expression: relative to ER:STOP DMSO = 1, individual replicate values
Protocol: Total RNA was isolated using RNAeasy kit (Quiagen). cDNA was generated with reverse transcriptase iScript (Bio-Rad). RT-qPCR was performed using SYBR Select Master Mix (Applied Biosystems) in OneStepPlus detection system (Applied Biosystems). Oligos for amplification were: NOXA Fw-[…] and Rv-[…]; b-ACTIN Fw-[…] and Rv-[…]; IL1a Fw-[…] and Rv- […]; IL1b Fw-[…] and Rv- […]; IL8 Fw-[…] and Rv-[…]; p16 Fw-CGGTCGGAGGCCGATCCAG and Rv- […]; p21Fw-[…] and Rv- […].

[2] = system: proliferating IMR90 cells; assay: BrdU incorporation proliferation assay; conditions: for % BrdU positive cells, mean (Test details, Mean 2) / % BrdU positive cells: IMR90 cells; for % BrdU positive cells, mean (Test details, Mean 2): n 4; for % BrdU positive cells: single replicates (SUP FIG 9G); for proliferation by BrdU incorporation, in words: proliferating IMR90 cells, 10 nM
Protocol: 5-bromo-2′-deoxyuridine (BrdU) incorporation was used to measure the number of cells actively replicating DNA. Cells were incubated with 10 μM BrdU (85811, Sigma) for 18 h. After that, cells were fixed with 4% Paraformaldehyde, permeabilised, blocked and then stained for immunofluorescence using BrdU primary antibody (555627 BD Pharmigen), Alexa fluor secondary for detection, and DAPI staining for cell counting. Acquisition was done with a Nikon TI2 microscope and analysis was performed with ImageJ for cell counting.

[3] = system: non-senescent control IMR90 ER:RAS cells; assay: Nuclei count (Hoechst, high content imaging) senolytic assay, OIS model, non-senescent control cells; conditions: Homo sapiens; for IC50: IMR-90, OIS model, non-senescent IMR90 ER:RAS, nuclei count, 72 h
Procedure, shortened: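 Readout is automated image-based counting of Hoechst-stained nuclei per well, with loss of cells relative to untreated wells taken as cell death. Senescent (4-OHT, 100 nM) and control IMR90 ER:RAS cells were exposed to compounds for 72 h at 10 nM to 10 μM final.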

[4] = IMR-90, 72 h, Control, log (dose) [M] -5, 72 h, mean n=3 (Fig 3C), read-out: Mean % Cell Survival
[5] = IMR-90, 72 h, Control, log (dose) [M] -5.33, 72 h, mean n=3 (Fig 3C), read-out: Mean % Cell Survival
[6] = IMR-90, 72 h, Control, log (dose) [M] -5.66, 72 h, mean n=3 (Fig 3C), read-out: Mean % Cell Survival
[7] = IMR-90, 72 h, Control, log (dose) [M] -6, 72 h, mean n=3 (Fig 3C), read-out: Mean % Cell Survival
[8] = IMR-90, 72 h, Control, log (dose) [M] -6.33, 72 h, mean n=3 (Fig 3C), read-out: Mean % Cell Survival
[9] = IMR-90, 72 h, Control, log (dose) [M] -6.66, 72 h, mean n=3 (Fig 3C), read-out: Mean % Cell Survival
[10] = IMR-90, 72 h, Control, log (dose) [M] -7, 72 h, mean n=3 (Fig 3C), read-out: Mean % Cell Survival
[11] = IMR-90, 72 h, Control, log (dose) [M] -7.33, 72 h, mean n=3 (Fig 3C), read-out: Mean % Cell Survival
[12] = IMR-90, 72 h, Control, log (dose) [M] -7.66, 72 h, mean n=3 (Fig 3C), read-out: Mean % Cell Survival
[13] = IMR-90, 72 h, Control, log (dose) [M] -8, 72 h, mean n=3 (Fig 3C), read-out: Mean % Cell Survival
[14] = IMR-90, Control cells, log (dose) [M] -7.33, individual replicates, SUP FIG 4C, read-out: % Cell Survival
[15] = IMR-90, Control cells, log (dose) [M] -8, individual replicates, SUP FIG 4C, read-out: % Cell Survival
[16] = IMR-90, Control, log (dose) [M] -5.33, read-out: % Cell Survival
[17] = IMR-90, Control, log (dose) [M] -5.66, read-out: % Cell Survival
[18] = IMR-90, Control, log (dose) [M] -6.33, read-out: % Cell Survival

| SMILES | NOXA mRNA expression ([1]; ER:RAS cells, 10 nM) | % BrdU positive cells, mean (Test details, Mean 2) [2] [%] | % BrdU positive cells [2] | proliferation by BrdU incorporation, in words [2] | viability at 10 µM [3, 4] [%] | viability at 4.677 µM [3, 5] [%] | viability at 2.188 µM [3, 6] [%] | viability at 1 µM [3, 7] [%] | viability at 0.4677 µM [3, 8] [%] | viability at 0.2188 µM [3, 9] [%] | viability at 0.1 µM [3, 10] [%] | viability at 0.04677 µM [3, 11] [%] | viability at 0.02188 µM [3, 12] [%] | viability at 0.01 µM [3, 13] [%] | IC50 [3] [nM] | viability at 0.04677 µM [3, 14] [%] | viability at 0.01 µM [3, 15] [%] | viability at 4.68 µM [3, 16] [%] | viability at 2.19 µM [3, 17] [%] | viability at 0.468 µM [3, 18] [%] | other results |
| --- | --- | --- | --- | --- | --- | --- | --- | --- | --- | --- | --- | --- | --- | --- | --- | --- | --- | --- | --- | --- | --- |
| CO[C@H]1C[C@H](O[C@H]2CC[C@@]3(C)[C@H](CC[C@@H]4[C@@H]3CC[C@]3(C)[C@@H](C5=CC(=O)OC5)[C@@H](OC(C)=O)C[C@]43O)C2)O[C@@H](C)[C@@H]1O [Oleandrin, oleandrin] | 43.71 and 48.67 and 52.89 and 50.91 | 69.23 | 69.38% and 67.43% and 69.89% and 70.23% | none of the cardiac glycosides induced unwanted changes in proliferation | 15 | 20 | 20.5 | 25.6 | 24.8 | 24.3 | 34.7 | 53.1 | 80.8 | 92.8 | 85 |  |  |  |  |  | NOXA mRNA expression, group mean (Test details, Mean 2) ([1]; ER:RAS cells, 10 nM, mean of n=4): 49.05; NOXA mRNA expression, in words ([1]; OIS IMR90 ER:RAS, 10 nM (Fig. 5c)): significant increase; viability at 4.677 µM ([3]; IMR-90, control, log (dose) [M] -5.33, individual replicates (Fig 3D), read-out: % Cell Survival): 20.6%; viability at 2.188 µM ([3]; IMR-90, control, log (dose) [M] -5.66, individual replicates (Fig 3D), read-out: % Cell Survival): 18.9%; viability at 1 µM ([3]; IMR-90, control, log (dose) [M] -6, individual replicates (Fig 3D), read-out: % Cell Survival): 22.9%; viability at 0.4677 µM ([3]; IMR-90, control, log (dose) [M] -6.33, individual replicates (Fig 3D), read-out: % Cell Survival): 19.9%; viability at 0.2188 µM ([3]; IMR-90, control, log (dose) [M] -6.66, individual replicates (Fig 3D), read-out: % Cell Survival): 22.4%; viability at 0.1 µM ([3]; IMR-90, control, log (dose) [M] -7, individual replicates (Fig 3D), read-out: % Cell Survival): 31.3%; viability at 0.04677 µM ([3]; IMR-90, control, log (dose) [M] -7.33, individual replicates (Fig 3D), read-out: % Cell Survival): 54.6%; viability at 0.02188 µM ([3]; IMR-90, control, log (dose) [M] -7.66, individual replicates (Fig 3D), read-out: % Cell Survival): 71%; viability at 0.01 µM ([3]; IMR-90, control, log (dose) [M] -8, individual replicates (Fig 3D), read-out: % Cell Survival): 82.4% |
| C[C@@H]1O[C@@H](O[C@H]2C[C@@H](O)[C@]3(CO)[C@H]4[C@H](O)C[C@]5(C)[C@@H](C6=CC(=O)OC6)CC[C@]5(O)[C@@H]4CC[C@]3(O)C2)[C@H](O)[C@H](O)[C@H]1O [Ouabain, ouabain, reference compound] | 4.99 and 3.07 and 6.94 and 6.96 | 73.84 | 69.37% and 73.68% and 73.67% and 78.62% | none of the cardiac glycosides induced unwanted changes in proliferation | 15.9 | 22.3 | 23.9 | 27 | 29.6 | 46.7 | 60.8 | 78.1 | 87.3 | 88.3 | 231 |  |  |  |  |  | viability at 0.0464 µM ([3]; IMR-90, Control, 46.4 nM, normalised to DMSO, individual experiments (Fig 3B), read-out: % Cell Survival): 78.1%; viability at 10 µM ([3]; IMR-90, control cells, log (dose) [M] -5, read-out: % Cell Survival): 10.9%; viability at 4.677 µM ([3]; IMR-90, control cells, log (dose) [M] -5.33, read-out: % Cell Survival): 23.1%; viability at 2.188 µM ([3]; IMR-90, control cells, log (dose) [M] -5.66, read-out: % Cell Survival): 27%; viability at 1 µM ([3]; IMR-90, control cells, log (dose) [M] -6, read-out: % Cell Survival): 27.3%; viability at 0.4677 µM ([3]; IMR-90, control cells, log (dose) [M] -6.33, read-out: % Cell Survival): 29.4%; viability at 0.2188 µM ([3]; IMR-90, control cells, log (dose) [M] -6.66, read-out: % Cell Survival): 46%; viability at 0.1 µM ([3]; IMR-90, control cells, log (dose) [M] -7, read-out: % Cell Survival): 62.2%; viability at 0.04677 µM ([3]; IMR-90, control cells, log (dose) [M] -7.33, read-out: % Cell Survival): 81.7%; viability at 0.02188 µM ([3]; IMR-90, control cells, log (dose) [M] -7.66, read-out: % Cell Survival): 81.6%; viability at 0.01 µM ([3]; IMR-90, control cells, log (dose) [M] -8, read-out: % Cell Survival): 86% |
| CC[C@]1(O)C[C@@H]2CN(CCc3c([nH]c4ccccc34)[C@@](C(=O)OC)(c3cc4c(cc3OC)N(C)[C@H]3[C@@](O)(C(=O)OC)[C@H](OC(C)=O)[C@]5(CC)C=CCN6CC[C@]43[C@@H]65)C2)C1 [Vinblastine sulfate, vinblastine sulfate, reference compound] |  |  |  |  | 51.7 | 55.1 | 57.9 | 76.4 | 76.9 | 80.8 | 104 | 112 | 104 | 105 |  | 114 | 102 | 42.3 | 47.6 | 41.5 | viability at 10 µM ([3]; IMR-90, Control, log (dose) [M] -5, read-out: % Cell Survival): 46.8%; viability at 1 µM ([3]; IMR-90, Control, log (dose) [M] -6, read-out: % Cell Survival): 41.3% |
| CO[C@H]1C[C@@H]2CC[C@@H](C)[C@@](O)(O2)C(=O)C(=O)N2CCCC[C@H]2C(=O)O[C@H]([C@H](C)C[C@@H]2CC[C@H](n3cnnn3)[C@H](OC)C2)CC(=O)[C@H](C)/C=C(\C)[C@@H](O)[C@@H](OC)C(=O)[C@H](C)C[C@H](C)/C=C/C=C/C=C/1C [Zotarolimus, zotarolimus, reference compound] |  |  |  |  | 94.7 | 101 | 84.8 | 104 | 108 | 99.6 | 95.5 | 105 | 110 | 98.2 |  | 102 | 93.6 | 92.8 | 83.4 | 93.7 | viability at 4.677 µM ([3]; IMR-90, Control cells, log (dose) [M] -5.33, individual replicates, SUP FIG 4C, read-out: % Cell Survival): 107%; viability at 1 µM ([3]; IMR-90, Control cells, log (dose) [M] -6, individual replicates, SUP FIG 4C, read-out: % Cell Survival): 109%; viability at 0.2188 µM ([3]; IMR-90, Control cells, log (dose) [M] -6.66, individual replicates, SUP FIG 4C, read-out: % Cell Survival): 99.3%; viability at 0.1 µM ([3]; IMR-90, Control cells, log (dose) [M] -7, individual replicates, SUP FIG 4C, read-out: % Cell Survival): 91%; viability at 0.02188 µM ([3]; IMR-90, Control cells, log (dose) [M] -7.66, individual replicates, SUP FIG 4C, read-out: % Cell Survival): 111%; viability at 0.219 µM ([3]; IMR-90, Control, log (dose) [M] -6.66, read-out: % Cell Survival): 88.1%; viability at 0.1 µM ([3]; IMR-90, Control, log (dose) [M] -7, read-out: % Cell Survival): 98.7%; viability at 0.04677 µM ([3]; IMR-90, Control, log (dose) [M] -7.33, read-out: % Cell Survival): 99.6%; viability at 0.0219 µM ([3]; IMR-90, Control, log (dose) [M] -7.66, read-out: % Cell Survival): 85.6%; viability at 0.01 µM ([3]; IMR-90, Control, log (dose) [M] -8, read-out: % Cell Survival): 99.5% |
